Data as given in PubChem BioAssay AID330 (DTP/NCI, 2004).
Where “and” joins values, the source holds several entries; their conditions need not be identical. Equal values may be shown once. Inconclusive results and toxic doses are left out. Rule for the calls: active = survival T/C of 150% or more; inactive = T/C below 125% in these data.

Tested on: P388 leukemia ip, CD2F1 mice, survival T/C
Test: NCI In Vivo Anticancer Drug Screen. Data for tumor model P388 Leukemia (intraperitoneal) in CD2F1 (CDF1) mice
Settings: endpoint: median survival time, higher = longer survival
Method in brief: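 Mice carrying the transplanted tumor received test compound or vehicle. Survival was recorded in each group, and the value is the treated-group measurement divided by that of the vehicle-treated control group.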

[1] = dose: 60.0 mg/kg/injection, schedule: Q01DX005 (ip), vehicle: saline with Tween-80
[2] = dose: 120.0 mg/kg/injection, schedule: Q01DX005 (ip), vehicle: saline with Tween-80
[3] = dose: 240.0 mg/kg/injection, schedule: Q01DX005 (ip), vehicle: saline with Tween-80
[4] = dose: 50.0 mg/kg/injection, schedule: Q01DX005 (ip), vehicle: Klucel (hydroxypropylcellulose) (HPC)
[5] = dose: 100.0 mg/kg/injection, schedule: Q01DX005 (ip), vehicle: Klucel (hydroxypropylcellulose) (HPC)
[6] = dose: 200.0 mg/kg/injection, schedule: Q01DX005 (ip), vehicle: Klucel (hydroxypropylcellulose) (HPC)
[7] = dose: 50.0 mg/kg/injection, schedule: Q01DX009 (ip), vehicle: saline with Tween-80
[8] = dose: 100.0 mg/kg/injection, schedule: Q01DX009 (ip), vehicle: saline with Tween-80
[9] = dose: 200.0 mg/kg/injection, schedule: Q01DX009 (ip), vehicle: saline with Tween-80
[10] = dose: 50.0 mg/kg/injection, schedule: Q01DX005 (ip), vehicle: saline with Tween-80
[11] = dose: 100.0 mg/kg/injection, schedule: Q01DX005 (ip), vehicle: saline with Tween-80
[12] = dose: 200.0 mg/kg/injection, schedule: Q01DX005 (ip), vehicle: saline with Tween-80
[13] = dose: 12.5 mg/kg/injection, schedule: Q01DX009 (ip), vehicle: saline with Tween-80
[14] = dose: 25.0 mg/kg/injection, schedule: Q01DX009 (ip), vehicle: Klucel (hydroxypropylcellulose) (HPC)
[15] = dose: 50.0 mg/kg/injection, schedule: Q01DX009 (ip), vehicle: Klucel (hydroxypropylcellulose) (HPC)
[16] = dose: 100.0 mg/kg/injection, schedule: Q01DX009 (ip), vehicle: Klucel (hydroxypropylcellulose) (HPC)
[17] = dose: 60.0 mg/kg/injection, schedule: Q01DX005 (ip), vehicle: Klucel (hydroxypropylcellulose) (HPC)
[18] = dose: 120.0 mg/kg/injection, schedule: Q01DX005 (ip), vehicle: Klucel (hydroxypropylcellulose) (HPC)
[19] = dose: 25.0 mg/kg/injection, schedule: Q01DX009 (ip), vehicle: saline with Tween-80
[20] = dose: 100.0 mg/kg/injection, schedule: Q04DX003 (ip), vehicle: saline with Tween-80
[21] = dose: 200.0 mg/kg/injection, schedule: Q04DX003 (ip), vehicle: saline with Tween-80
[22] = dose: 50.0 mg/kg/injection, schedule: Q01DX009 (ip), vehicle: saline
[23] = dose: 100.0 mg/kg/injection, schedule: Q01DX009 (ip), vehicle: saline
[24] = dose: 200.0 mg/kg/injection, schedule: Q01DX009 (ip), vehicle: saline
[25] = dose: 3.13 mg/kg/injection, schedule: Q01DX009 (ip), vehicle: saline with Tween-80
[26] = dose: 6.25 mg/kg/injection, schedule: Q01DX009 (ip), vehicle: saline with Tween-80

Measured: T/C

CC[PH+](CC)CC.CC[PH+](CC)CC.[Au]
inactive: dose: 0.15 mg/kg/injection, schedule: Q01DX009 (ip), vehicle: water 104 % of control and 91 % of control | dose: 0.31 mg/kg/injection, schedule: Q01DX009 (ip), vehicle: water 100 % of control and 107 % of control | dose: 0.62 mg/kg/injection, schedule: Q01DX009 (ip), vehicle: water 118 % of control and 122 % of control | dose: 1.25 mg/kg/injection, schedule: Q01DX009 (ip), vehicle: water 118 % of control

C#CCOc1ccc(O)c(C(=O)OCCCOC(=O)c2cc(OCC#C)ccc2O)c1
inactive: [1] 104 % of control | [2] 98 % of control | [3] 100 % of control

O=c1[nH]nc(SCc2c(Cl)cccc2Cl)c(=O)[nH]1
inactive: dose: 25.0 mg/kg/injection, schedule: Q01DX005 (ip), vehicle: Klucel (hydroxypropylcellulose) (HPC) 95 % of control | [4] 93 % of control | [5] 111 % of control | [6] 95 % of control

O=C1c2ccccc2C(=O)c2c(Cl)ccc(O)c21
inactive: [7] 98 % of control and 94 % of control | [8] 99 % of control and 92 % of control | [9] 104 % of control and 112 % of control | dose: 400.0 mg/kg/injection, schedule: Q01DX009 (ip), vehicle: saline with Tween-80 111 % of control and 112 % of control

NC(=O)N/N=C1\CCCCC12CCCC2
inactive: dose: 100.0 mg/kg/injection, schedule: Q04DX002 (ip), vehicle: saline with Tween-80 102 % of control | dose: 200.0 mg/kg/injection, schedule: Q04DX002 (ip), vehicle: saline with Tween-80 102 % of control | dose: 400.0 mg/kg/injection, schedule: Q04DX002 (ip), vehicle: saline with Tween-80 100 % of control

Cc1cc2cc3c(=O)n(C)c(=O)nc-3n(C)c2cc1C
inactive: [10] 92 % of control | [11] 98 % of control | [12] 95 % of control

O=C(Nc1cccc(Cl)c1)c1cc(N=Nc2ccc([N+](=O)[O-])cc2Cl)ccc1O
inactive: dose: 12.5 mg/kg/injection, schedule: Q01DX009 (ip), vehicle: Klucel (hydroxypropylcellulose) (HPC) 104 % of control | [13] 105 % of control | [14] 113 % of control | dose: 25.0 mg/kg/injection, schedule: Q04DX003 (ip), vehicle: Klucel (hydroxypropylcellulose) (HPC) 107 % of control | [15] 113 % of control | dose: 50.0 mg/kg/injection, schedule: Q04DX003 (ip), vehicle: Klucel (hydroxypropylcellulose) (HPC) 107 % of control | [16] 118 % of control | dose: 100.0 mg/kg/injection, schedule: Q04DX003 (ip), vehicle: Klucel (hydroxypropylcellulose) (HPC) 115 % of control | dose: 200.0 mg/kg/injection, schedule: Q04DX003 (ip), vehicle: Klucel (hydroxypropylcellulose) (HPC) 115 % of control

CC1(C)CN=C(NN=C(/C=C/c2ccc(C(F)(F)F)cc2)/C=C/c2ccc(C(F)(F)F)cc2)NC1
inactive: [17] 98 % of control | [18] 98 % of control

Cc1ccccc1C(=O)c1cnc(C)n1Cc1ccccc1
inactive: [1] 96 % of control | [2] 98 % of control | [3] 98 % of control

CSC(=S)N/N=C/c1ccccn1
inactive: [13] 100 % of control | [19] 104 % of control and 109 % of control | [7] 113 % of control

NC1[N-]C(C2CCCC[N-]2)CC2CCCCC21.NC1[N-]C(C2CCCC[N-]2)CC2CCCCC21.O=[N+]([O-])O.[Cu+] (stereo unspecified)
inactive: dose: 6.25 mg/kg/injection, schedule: Q04DX009 (ip), vehicle: suspension in saline 98 % of control | dose: 12.5 mg/kg/injection, schedule: Q04DX009 (ip), vehicle: suspension in saline 103 % of control | dose: 25.0 mg/kg/injection, schedule: Q04DX009 (ip), vehicle: suspension in saline 113 % of control

O=NNc1ncnc2c1ncn2Cc1ccccc1
inactive: dose: 3.12 mg/kg/injection, schedule: Q01DX009 (ip), vehicle: water 103 % of control | dose: 6.25 mg/kg/injection, schedule: Q01DX009 (ip), vehicle: water 100 % of control | dose: 12.5 mg/kg/injection, schedule: Q01DX009 (ip), vehicle: water 112 % of control | dose: 25.0 mg/kg/injection, schedule: Q01DX009 (ip), vehicle: water 112 % of control | dose: 50.0 mg/kg/injection, schedule: Q01DX009 (ip), vehicle: water 112 % of control

CCc1nnc2c(C)c(C)nc(C)n12
inactive: [20] 94 % of control | [21] 100 % of control

CNC(=O)NC(c1ccc2c(c1)OCO2)c1cc2c(cc1O)OCO2 (stereo unspecified)
inactive: [17] 87 % of control | [18] 87 % of control

CN1CCN(S(=O)(=O)c2cnccc2N2CCN(CCO)CC2)CC1
inactive: [22] 108 % of control | [23] 97 % of control | [24] 97 % of control

O=C(Nc1cccc(C(F)(F)F)c1)Nc1nccs1
inactive: [14] 100 % of control | [15] 98 % of control | [16] 97 % of control

Cc1ccc(S(=O)(=O)OCC(C)(C)COS(=O)(=O)c2ccc(C)cc2)cc1
inactive: [25] 103 % of control | [26] 103 % of control | [13] 105 % of control | [19] 106 % of control

CCCNC(=S)Nc1ncco1
inactive: [22] 100 % of control | [23] 96 % of control | [24] 111 % of control

CC(C)c1ccc(O)c(=O)cc1
inactive: [19] 99 % of control | [7] 102 % of control | [8] 114 % of control

O=C1/C(=C\c2ccccc2O)Cc2ccccc21
inactive: [4] 107 % of control | [5] 103 % of control | [6] 91 % of control

CSCc1cc(Cl)ccc1N
inactive: [7] 97 % of control | [8] 97 % of control | [9] 97 % of control

c1ccc2c(Oc3c4ccccc4nc4ccccc34)c3ccccc3nc2c1
inactive: [10] 95 % of control | [11] 88 % of control | [12] 90 % of control

O=C(c1cc2c(cc1[N+](=O)[O-])OCO2)N1CCc2ccccc21
inactive: [25] 99 % of control | [26] 99 % of control | [13] 96 % of control | dose: 25.0 mg/kg/injection, schedule: Q01DX009 (ip), vehicle: other 99 % of control | [19] 94 % of control | dose: 50.0 mg/kg/injection, schedule: Q01DX009 (ip), vehicle: other 100 % of control | dose: 100.0 mg/kg/injection, schedule: Q01DX009 (ip), vehicle: other 107 % of control | dose: 200.0 mg/kg/injection, schedule: Q01DX009 (ip), vehicle: other 89 % of control

C[C@@H]1C[C@H]2C(=CC1=O)CC[C@@H]1[C@@H]2CC[C@]2(C)[C@@H](O)CC[C@@H]12
inactive: [20] 100 % of control | [21] 109 % of control | dose: 400.0 mg/kg/injection, schedule: Q04DX003 (ip), vehicle: saline with Tween-80 100 % of control
